# Reference: patent US20230020036A1, “TREATMENT OF EPILEPTIC CONDITIONS WITH GABAA RECEPTOR MODULATORS” (NEUROCYCLE THERAPEUTICS, INC., priority 2019, published 2023)
# Values joined by “and” are separate entries in the source; they are usually repeats but may differ in a detail not shown here. Identical values can stand only once. “Also recorded” adds a separate entry of the source.
# System: Scn1a+/- heterozygous knockout mice ([129xB]F1.Scn1a+/-), heat-induced seizures
# Assay: Hyperthermia-induced seizure study in Scn1a+/- heterozygous knockout mice
# Format: in vivo, mouse
# Set-up: Temp Change: unit not given here
# Settings: for amount of seizures relative to administration of vehicle: Table 10 summary; for performance compared with the clobazam positive control: clobazam 10 mg/kg; for efficacy at preventing heat-induced seizures: summary of the seizure study, FIG. 13
# From the text: Reason for selection of species: The Scn1a^+/− knockout mouse ([129xB]F1. Scn1a^+/−) is a model subject of DS with a high translational value.
# Between P14 and 16, Scn1a^+/− heterozygous knockout mice are randomly assigned to treatment groups (n=7 males, 7 females/treatment group). The Scn1a^+/− knockout mouse model was chosen because it is an art accepted animal model for epileptic conditions, including for Dravet Syndrome. Treatments are GABAA receptor modulator 1 (“Compound 1” as a phosphate salt at 0.1, 0.3, 1.0 mg/kg), GABAA receptor modulator 2 (“Compound 2” at 3, 10, 30, 100 mg/kg), vehicle, or Clobazam (“CBZ”) (10 mg/kg; positive control).
# The GABAA receptor modulators were administered intraperitoneally (i.p.) using a 0.5 or 1-ml plastic syringe fitted with a 27 or 30 gauge 0.5″-long beveled needle.
# Animals received 10 mL of formulation per kg of body weight as measured on the day of experiment.
# In order to verify the dose concentration, mice were dosed with a test article or control and placed into individual housing cages. A temperature probe was gently inserted into the mouse's rectum and secured by taping the probe's wire to the mouse's tail with the tag end on the mouse's dorsal side. For each group, the insertion of the probe was as follows: • a. For mice administered CBZ, five (5) mins passed before insertion of the probe in order to allow 20-30 min pretreatment time when the state of hyperthermia reached. • b. For mice administered Compound 1, thirty-five (35) mins passed before insertion of the probe in order to allow 50-60 min pretreatment time when the state of hyperthermia is reached. • c. For mice administered […], five (5) mins passed before insertion of the probe in order to allow 20-30 min pretreatment time when the state of hyperthermia reached.
# Each mouse was allowed to acclimate to the temperature probe for five (5) minutes before recording the baseline temperature. FIGS. 1-3 depict the starting temperatures of the female mice, the male mice, and the average starting temperatures of all mice prior to inducing the heat-induced seizures.
# FIGS. 4-6 depict the final core body temperature of the female mice, the male mice, and the average final core body temperature of all mice after heating. FIGS. 7-9 illustrate the total temperature change for the female mice, the male mice, and average of all mice; while FIGS. 10-12 depict the average temperature change per minute for the female mice, the male mice, and average of all mice. The mouse's body temperature was maintained at 42.5° C. for 3 mins. If no seizure occurred, the mouse was considered seizure-free.
# [1] = 0.1 mg/kg i.p., 60 minute pretreatment, individual animals, female mice
# [2] = 0.1 mg/kg i.p., 60 minute pretreatment, individual animals, male mice
# [3] = 0.3 mg/kg i.p., 60 minute pretreatment, individual animals, female mice
# [4] = 0.3 mg/kg i.p., 60 minute pretreatment, individual animals, male mice
# [5] = 3 mg/kg i.p., 30 minute pretreatment, individual animals, female mice
# [6] = 3 mg/kg i.p., 30 minute pretreatment, individual animals, male mice
# [7] = Compound 2 30 mg/kg, 30 minute pretreatment, individual animals, female mice
# [8] = Compound 2 30 mg/kg, 30 minute pretreatment, individual animals, male mice
# [9] = Compound 2 100 mg/kg, 30 minute pretreatment, individual animals, female mice
# [10] = Compound 2 100 mg/kg, 30 minute pretreatment, individual animals, male mice
# [11] = Clobazam 10 mg/kg i.p., 30 minute pretreatment, individual animals, female mice
# [12] = Clobazam 10 mg/kg i.p., 30 minute pretreatment, individual animals, male mice
structure (smiles),measurement,setting,value
CC(C)(O)c1cnn2c(-c3ccc(F)c(-c4c(F)cccc4C#N)c3)cnc2n1 [Compound 1],Total With No Seizure,"0.1 mg/kg i.p., 60 minute pretreatment",6%
same,End Temp,[1],41.9 °C and 41.8 °C and 41.6 °C and 42 °C and 41.7 °C and 42.8 °C and 41.4 °C and 41.2 °C
same,Observations,[1],"Tonic-clonic, squeek; also recorded: Seizure free, 3 min hold"
same,End Temp,[2],42.6 °C and 41.8 °C and 40.8 °C and 42 °C and 42.1 °C and 41.5 °C and 42.2 °C and 41.6 °C
same,Observations,[2],"Tonic-clonic, seizure; also recorded: Tonic-clonic, squeek"
same,Total With No Seizure,"0.3 mg/kg i.p., 60 minute pretreatment",33%
same,End Temp,[3],41.7 °C and 41.4 °C and 42.3 °C (2×) and 42.5 °C and 42.8 °C and 42.1 °C and 42.2 °C and 42.7 °C
same,Observations,[3],"Tobic-clonic, squeek, HLE; also recorded: Seizure free, 3 min hold; also recorded: tonic-clonic, squeek, HLE"
same,End Temp,[4],41.4 °C and 42.4 °C (2×) and 42.8 °C and 41.9 °C and 42.2 °C and 42.6 °C (2×) and 43 °C
same,Observations,[4],"Tonic,-clonic, squeek; also recorded: Tonic-clonic, squeek; also recorded: Seizure free, 3 min hold"
same,Total With No Seizure,"1.0 mg/kg i.p., 60 minute pretreatment",36%
same,Observations,"1.0 mg/kg i.p., 60 minute pretreatment, individual animals","Tonic-clonic seizure,; also recorded: seizure free, 3 min hold; also recorded: Tonic-clonic seizure; also recorded: Tonic-clonic, Squeek"
same,End Temp,"1.0 mg/kg i.p., 60 minute pretreatment, individual animals, female mice",42.2 °C (2×) and 42.8 °C (2×) and 42.4 °C and 42.5 °C (3×) and 42.3 °C and 42.9 °C and 42.1 °C
same,End Temp,"1.0 mg/kg i.p., 60 minute pretreatment, individual animals, male mice",41.9 °C and 42.5 °C (2×) and 42.9 °C and 42.3 °C and 42.2 °C and 42.8 °C (2×) and 41.5 °C and 41.3 °C and 42.6 °C
same,amount of seizures relative to administration of vehicle,,reduced the amount of seizures
same,performance compared with the clobazam positive control,,performed at least as well as the clobazam positive control
same,efficacy at preventing heat-induced seizures,,effective at preventing heat-induced seizures
same,End Temperature,"summary, 0.1 mg/kg (n = 16)",41.81 °C
same,Seizure free %,"summary, 0.1 mg/kg (n = 16)",6%
same,Temp Change,"summary, 0.1 mg/kg (n = 16)",6.66
same,Temp Change/min,"summary, 0.1 mg/kg (n = 16)",0.52
same,End Temperature,"summary, 0.3 mg/kg (n = 18)",42.29 °C
same,Seizure free %,"summary, 0.3 mg/kg (n = 18)",33%
same,Temp Change,"summary, 0.3 mg/kg (n = 18)",7.15
same,Temp Change/min,"summary, 0.3 mg/kg (n = 18)",0.48
same,End Temperature,"summary, 1.0 mg/kg (n = 22)",42.39 °C
same,Seizure free %,"summary, 1.0 mg/kg (n = 22)",36%
same,Temp Change,"summary, 1.0 mg/kg (n = 22)",7.05
same,Temp Change/min,"summary, 1.0 mg/kg (n = 22)",0.46
C#Cc1ccc2c(c1)C(c1ccccn1)=NCc1c(-c3nc(CC)no3)ncn1-2 [Compound 2],Total With No Seizure,"3 mg/kg i.p., 30 minute pretreatment",7%
same,End Temp,[5],42.6 °C and 41.8 °C and 41.7 °C (2×) and 42.2 °C and 42.4 °C and 41.4 °C
same,Observations,[5],"Seizure free, 3 min hold; also recorded: Tonic-clonic, squeek"
same,End Temp,[6],41.3 °C (2×) and 41.7 °C and 42.1 °C and 41.8 °C and 42 °C and 42.5 °C
same,Observations,[6],"Tonic-clonic, squeek; also recorded: Tonic-clonic on the onset"
same,prevention of seizures,"100 mg/kg dose, n=8",completely preventing seizures in each animal
same,dose dependence of seizure prevention,"3, 10, 30, 100 mg/kg",prevented seizures in a dose-dependent fashion
same,Total With No Seizure,"Compound 2 10 mg/kg i.p., 30 minute pretreatment",50%
same,Observations,"Compound 2 10 mg/kg i.p., 30 minute pretreatment, individual animals","Tonic-clonic, squeek"
same,End Temp,"Compound 2 10 mg/kg i.p., 30 minute pretreatment, individual animals, female mice",42.7 °C (2×) and 42.8 °C (2×) and 42.6 °C and 42.1 °C and 42.5 °C
same,End Temp,"Compound 2 10 mg/kg i.p., 30 minute pretreatment, individual animals, male mice",42.5 °C (3×) and 42.8 °C and 42 °C and 40 °C and 42.7 °C
same,Total With No Seizure,"Compound 2 30 mg/kg, 30 minute pretreatment",73%
same,End Temp,[7],42.5 °C and 41.5 °C and 42.8 °C (2×) and 42.7 °C (3×) and 42.6 °C
same,Observations,[7],"seizure free, 3 min hold; also recorded: Tonic-clonic seizure"
same,Temp Change,[7],9.1 and 5.3 and 6.3 and 6.2 and 7.9 and 7.2 and 6.6 and 7.4
same,Temp Change/min,[7],0.51 and 0.48 (2×) and 0.41 and 0.46 and 0.55 and 0.39 and 0.35
same,End Temp,[8],42.5 °C and 42.8 °C and 42.6 °C and 43 °C and 42.7 °C (2×) and 41.6 °C
same,Observations,[8],"Tonic-clonic, squeek; also recorded: Seizure free, 3 min hold"
same,Temp Change,[8],7.3 and 6.8 and 7.8 and 7.5 (2×) and 9.6 and 7
same,Temp Change/min,[8],0.66 and 0.49 and 0.41 and 0.54 and 0.53 and 0.50 and 0.63
same,Total With No Seizure,"Compound 2 100 mg/kg, 30 minute pretreatment",100%
same,End Temp,[9],42.9 °C and 42.7 °C (2×) and 42.5 °C
same,Observations,[9],"Seizure free, 3 min hold"
same,Temp Change,[9],8.2 and 7.4 and 7.7 and 8.5
same,Temp Change/min,[9],0.59 and 0.53 and 0.33 and 0.50
same,End Temp,[10],42.6 °C (2×) and 42.7 °C and 42.5 °C
same,Observations,[10],"Seizure free, 3 min hold"
same,Temp Change,[10],7.4 and 7.2 and 9.7 and 7.7
same,Temp Change/min,[10],0.31 and 0.36 and 0.54 and 0.29
same,amount of seizures relative to administration of vehicle,,reduced the amount of seizures
same,performance compared with the clobazam positive control,,performed at least as well as the clobazam positive control
same,efficacy at preventing heat-induced seizures,,effective at preventing heat-induced seizures
same,End Temperature,"summary, 3 mg/kg (n = 14)",41.89 °C
same,Seizure free %,"summary, 3 mg/kg (n = 14)",7%
same,Temp Change,"summary, 3 mg/kg (n = 14)",6.61
same,Temp Change/min,"summary, 3 mg/kg (n = 14)",0.45
same,End Temperature,"summary, 10 mg/kg (n = 14)",42.37 °C
same,Seizure free %,"summary, 10 mg/kg (n = 14)",50%
same,Temp Change,"summary, 10 mg/kg (n = 14)",7.09
same,Temp Change/min,"summary, 10 mg/kg (n = 14)",0.47
same,End Temperature,"summary, 30 mg/kg (n = 15)",42.55 °C
same,Seizure free %,"summary, 30 mg/kg (n = 15)",73%
same,Temp Change,"summary, 30 mg/kg (n = 15)",7.30
same,Temp Change/min,"summary, 30 mg/kg (n = 15)",0.49
same,End Temperature,"summary, 100 mg/kg (n = 8)",42.60 °C
same,Seizure free %,"summary, 100 mg/kg (n = 8)",100%
same,Temp Change,"summary, 100 mg/kg (n = 8)",8.00
same,Temp Change/min,"summary, 100 mg/kg (n = 8)",0.37
"CN1C(=O)CC(=O)N(c2ccccc2)c2cc(Cl)ccc21 [Clobazam, reference compound]",Total With No Seizure,"Clobazam 10 mg/kg i.p., 30 minute pretreatment",38%
same,End Temp,[11],42.3 °C and 42 °C and 42.2 °C and 42.7 °C (2×) and 42.6 °C (4×) and 42.5 °C (2×) and 42.9 °C
same,Observations,[11],"Tonic-clonic, squeek; also recorded: seizure free, 3 min hold; also recorded: Tonic-clonic on the onset; also recorded: Tonic-clonic, HLE"
same,End Temp,[12],41.9 °C and 42.6 °C (2×) and 42.5 °C (3×) and 42.9 °C and 42.8 °C and 41.8 °C and 42 °C and 41.7 °C and 42.1 °C
same,Observations,[12],"seizure free, 3 min hold; also recorded: Tonic-clonic seizure; also recorded: Tonic-clonic seizure,; also recorded: Tonic-clonic, squeek; also recorded: Tonic-clonic on the onset"
same,End Temperature,"summary, 10 mg/kg (n = 24)",42.42 °C
same,Seizure free %,"summary, 10 mg/kg (n = 24)",38%
same,Temp Change,"summary, 10 mg/kg (n = 24)",7.60
same,Temp Change/min,"summary, 10 mg/kg (n = 24)",0.53
